# According to ChEMBL document CHEMBL1125472, “5-lipoxygenase: properties, pharmacology, and the quinolinyl(bridged)aryl class of inhibitors” (J Med Chem, 1992):
# pIC50: −log10 of the molar value.
# Columns and labels:
# RBL-1 [1] = assay: The compound was tested for inhibitory activity against 5-HETE synthesis in rat RBL-1; assay type: functional, cell-based
# [2] = target: T1, Prostaglandin G/H synthase (cyclooxygenase) (Mus musculus, UniProt P22437+Q05769); assay: The compound was tested for inhibitory activity against Prostaglandin G/H synthase in mouse macrophage; assay type: protein assay
# T1 sequence (P22437 whole entry): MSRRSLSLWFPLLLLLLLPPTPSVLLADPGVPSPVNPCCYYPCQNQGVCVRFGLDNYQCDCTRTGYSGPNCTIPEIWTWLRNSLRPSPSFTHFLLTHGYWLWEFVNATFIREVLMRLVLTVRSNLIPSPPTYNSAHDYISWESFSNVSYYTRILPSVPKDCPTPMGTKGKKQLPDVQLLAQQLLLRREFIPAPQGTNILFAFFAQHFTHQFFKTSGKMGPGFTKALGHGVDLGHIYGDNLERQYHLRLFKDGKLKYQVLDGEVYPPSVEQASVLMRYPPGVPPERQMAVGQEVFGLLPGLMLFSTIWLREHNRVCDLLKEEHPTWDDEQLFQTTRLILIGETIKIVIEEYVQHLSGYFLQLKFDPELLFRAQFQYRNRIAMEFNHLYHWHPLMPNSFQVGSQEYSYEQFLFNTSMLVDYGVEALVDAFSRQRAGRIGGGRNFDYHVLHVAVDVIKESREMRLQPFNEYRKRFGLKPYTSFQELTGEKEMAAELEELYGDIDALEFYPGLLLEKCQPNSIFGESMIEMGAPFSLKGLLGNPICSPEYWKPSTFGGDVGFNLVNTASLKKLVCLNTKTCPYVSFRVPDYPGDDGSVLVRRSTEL
# T1 sequence (Q05769 whole entry): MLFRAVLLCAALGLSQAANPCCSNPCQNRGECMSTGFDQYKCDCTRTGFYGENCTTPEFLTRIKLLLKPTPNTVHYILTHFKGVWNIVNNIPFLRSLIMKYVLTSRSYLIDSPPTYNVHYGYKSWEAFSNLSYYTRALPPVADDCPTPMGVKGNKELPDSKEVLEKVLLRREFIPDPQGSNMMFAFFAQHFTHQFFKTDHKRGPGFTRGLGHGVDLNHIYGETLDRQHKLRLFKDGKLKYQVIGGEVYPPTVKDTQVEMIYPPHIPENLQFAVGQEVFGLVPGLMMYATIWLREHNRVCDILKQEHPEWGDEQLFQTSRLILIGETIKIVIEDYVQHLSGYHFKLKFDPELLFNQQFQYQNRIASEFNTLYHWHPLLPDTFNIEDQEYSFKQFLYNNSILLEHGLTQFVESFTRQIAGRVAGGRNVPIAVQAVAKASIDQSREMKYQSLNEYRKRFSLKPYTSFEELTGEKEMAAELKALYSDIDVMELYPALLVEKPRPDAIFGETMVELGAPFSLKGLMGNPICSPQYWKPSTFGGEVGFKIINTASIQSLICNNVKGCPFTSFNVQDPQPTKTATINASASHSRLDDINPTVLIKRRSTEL
# [3] = target: T2, Polyunsaturated fatty acid 5-lipoxygenase (Rattus norvegicus, UniProt P12527); assay: The compound was tested for inhibitory activity against 5-lipoxygenase in rat RBL-1; assay type: cell-based
# T2 sequence (P12527 whole entry): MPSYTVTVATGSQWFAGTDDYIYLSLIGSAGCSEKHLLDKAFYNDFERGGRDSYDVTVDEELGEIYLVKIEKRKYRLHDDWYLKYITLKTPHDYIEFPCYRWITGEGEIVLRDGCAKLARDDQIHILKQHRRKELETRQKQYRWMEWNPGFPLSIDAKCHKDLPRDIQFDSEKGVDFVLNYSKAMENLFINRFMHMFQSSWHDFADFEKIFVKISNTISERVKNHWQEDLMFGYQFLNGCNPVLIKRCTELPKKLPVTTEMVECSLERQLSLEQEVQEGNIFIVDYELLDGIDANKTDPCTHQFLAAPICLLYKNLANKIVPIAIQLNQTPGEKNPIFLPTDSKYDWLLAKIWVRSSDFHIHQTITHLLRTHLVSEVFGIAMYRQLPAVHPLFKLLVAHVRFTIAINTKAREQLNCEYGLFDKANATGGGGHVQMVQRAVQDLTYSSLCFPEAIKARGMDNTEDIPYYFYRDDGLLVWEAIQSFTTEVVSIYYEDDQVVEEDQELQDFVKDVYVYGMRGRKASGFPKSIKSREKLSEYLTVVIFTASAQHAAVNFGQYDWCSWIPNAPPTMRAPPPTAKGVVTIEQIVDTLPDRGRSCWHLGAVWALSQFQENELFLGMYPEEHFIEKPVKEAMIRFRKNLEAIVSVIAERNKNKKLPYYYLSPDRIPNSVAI
# Rattus norvegicus [4] = organism: Rattus norvegicus; assay: The compound was tested for inhibitory activity against […] synthesis in rat macrophages; assay type: functional
# [5] = target: T3, Polyunsaturated fatty acid 5-lipoxygenase (Homo sapiens, UniProt P09917); assay: The compound was tested for inhibitory activity against 5-lipoxygenase in human polymorphonuclear leukocytes[PMNS]; assay type: cell-based
# T3 sequence (P09917 whole entry): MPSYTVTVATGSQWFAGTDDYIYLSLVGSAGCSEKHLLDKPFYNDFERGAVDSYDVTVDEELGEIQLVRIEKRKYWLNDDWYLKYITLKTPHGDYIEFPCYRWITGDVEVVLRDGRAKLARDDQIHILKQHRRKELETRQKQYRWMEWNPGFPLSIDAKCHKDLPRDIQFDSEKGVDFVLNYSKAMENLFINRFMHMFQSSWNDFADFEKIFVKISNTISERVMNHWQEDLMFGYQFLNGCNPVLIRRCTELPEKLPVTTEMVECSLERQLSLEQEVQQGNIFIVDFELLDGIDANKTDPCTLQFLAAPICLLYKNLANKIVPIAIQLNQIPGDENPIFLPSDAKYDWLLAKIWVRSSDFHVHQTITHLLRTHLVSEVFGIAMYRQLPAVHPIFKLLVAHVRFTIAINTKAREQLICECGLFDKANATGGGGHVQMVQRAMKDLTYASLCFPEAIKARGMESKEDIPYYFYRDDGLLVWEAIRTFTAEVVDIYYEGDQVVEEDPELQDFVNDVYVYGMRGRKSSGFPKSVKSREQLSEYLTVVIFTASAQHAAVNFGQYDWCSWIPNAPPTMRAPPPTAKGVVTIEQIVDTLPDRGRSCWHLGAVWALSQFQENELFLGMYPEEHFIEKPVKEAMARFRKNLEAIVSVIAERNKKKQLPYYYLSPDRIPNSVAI
# [6] = Oral bioavailability was determined; range 49-102%; assay type: ADME, organism-based; conditions: in vivo, read-out: Bioavailabiility
# Cavia porcellus [7] = assay: The inhibitory dose for antigen induced bronchoconstriction in guinea pig after peroral administration; assay type: functional; conditions: po, read-out: ID50 (the source's name)
# Cavia porcellus [8] = organism: Cavia porcellus; assay: The compound was tested for blocking of LTD4-induced contractions of guinea pig trachea; assay type: functional; conditions: read-out: pA2 (converted)
# Mus musculus [9] = organism: Mus musculus; assay: The compound was tested for inhibitory activity which inhibits LTC4 synthesis by zymosan-activated mouse peritoneal macrophages; assay type: functional
# [10] = The compound was tested for inhibitory activity which inhibits prostaglandin E2[PGE2] synthesis by zymosan-activated mouse peritoneal macrophages; assay type: functional
# Rattus norvegicus [11] = organism: Rattus norvegicus; assay: The compound was tested for inhibitory activity against synthesis of immunoreactive LTB4; assay type: functional
# Rattus norvegicus [12] = organism: Rattus norvegicus; assay: The compound was tested for inhibitory activity against synthesis of immunoreactive thromboxane B2 in rat PMNs; assay type: functional
# Rattus norvegicus [13] = assay: The compound was tested for inhibition in rat carrageenan paw edema assay; assay type: functional
# [14] = Plasma half-life was determined; 0.5-17.7h; assay type: ADME
# RBL-1 [15] = assay: The compound was tested for inhibitory activity in rat RBL-1 cells; assay type: functional, cell-based
# [16] = target: T2, Polyunsaturated fatty acid 5-lipoxygenase; assay: The compound was tested for inhibitory activity against 5-lipoxygenase in rat polymorphonuclear leukocytes[PMNS] (in vitro); assay type: cell-based
# Mus musculus [17] = assay: The effective dose for inhibition of mouse zymosan peritonitis (in vivo); assay type: functional
# [18] = target: Cyclooxygenase (Rattus norvegicus) (UniProt P35355+Q63921); assay: The compound was tested for inhibition of Prostaglandin G/H synthase in rat polymorphonuclear leukocytes[PMNS] at 100 uM concentration; assay type: functional, cell-based
# Rattus norvegicus [19] = assay: The effective dose after peroral administration for antiinflammatory activity against rat carrageenan edema; assay type: functional; conditions: po
# [20] = target: T2, Polyunsaturated fatty acid 5-lipoxygenase; assay: The compound was tested for inhibitory activity against 5-lipoxygenase using rat polymorphonuclear leukocytes[PMNS]
# Cavia porcellus [21] = assay: The compound was tested for inhibition of LTD4-induced bronchoconstriction in guinea pig at 50 mg/kg (in vivo); assay type: functional; conditions: read-out: Inhibition
# Cyclooxygenase = target: T4, Cyclooxygenase (Rattus norvegicus, UniProt P35355+Q63921); assay: The compound was tested for inhibitory activity against Prostaglandin G/H synthase using rat polymorphonuclear leukocytes[PMNS]
# T4 sequence (P35355 whole entry): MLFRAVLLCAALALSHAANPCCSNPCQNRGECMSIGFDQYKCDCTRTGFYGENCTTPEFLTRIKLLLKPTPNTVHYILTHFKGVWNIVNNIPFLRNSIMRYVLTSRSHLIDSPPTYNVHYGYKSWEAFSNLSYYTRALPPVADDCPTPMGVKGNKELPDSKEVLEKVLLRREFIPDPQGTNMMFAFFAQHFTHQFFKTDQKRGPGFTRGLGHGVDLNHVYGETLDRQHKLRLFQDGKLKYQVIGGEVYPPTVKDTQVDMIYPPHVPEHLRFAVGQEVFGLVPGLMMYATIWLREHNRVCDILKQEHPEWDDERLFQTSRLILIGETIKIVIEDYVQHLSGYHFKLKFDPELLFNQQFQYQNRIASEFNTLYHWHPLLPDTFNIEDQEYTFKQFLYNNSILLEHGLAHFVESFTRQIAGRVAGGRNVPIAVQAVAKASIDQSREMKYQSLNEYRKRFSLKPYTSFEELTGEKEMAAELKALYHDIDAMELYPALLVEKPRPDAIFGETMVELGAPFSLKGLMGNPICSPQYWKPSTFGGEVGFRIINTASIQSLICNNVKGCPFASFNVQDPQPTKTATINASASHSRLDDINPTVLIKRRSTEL
# T4 sequence (Q63921 whole entry): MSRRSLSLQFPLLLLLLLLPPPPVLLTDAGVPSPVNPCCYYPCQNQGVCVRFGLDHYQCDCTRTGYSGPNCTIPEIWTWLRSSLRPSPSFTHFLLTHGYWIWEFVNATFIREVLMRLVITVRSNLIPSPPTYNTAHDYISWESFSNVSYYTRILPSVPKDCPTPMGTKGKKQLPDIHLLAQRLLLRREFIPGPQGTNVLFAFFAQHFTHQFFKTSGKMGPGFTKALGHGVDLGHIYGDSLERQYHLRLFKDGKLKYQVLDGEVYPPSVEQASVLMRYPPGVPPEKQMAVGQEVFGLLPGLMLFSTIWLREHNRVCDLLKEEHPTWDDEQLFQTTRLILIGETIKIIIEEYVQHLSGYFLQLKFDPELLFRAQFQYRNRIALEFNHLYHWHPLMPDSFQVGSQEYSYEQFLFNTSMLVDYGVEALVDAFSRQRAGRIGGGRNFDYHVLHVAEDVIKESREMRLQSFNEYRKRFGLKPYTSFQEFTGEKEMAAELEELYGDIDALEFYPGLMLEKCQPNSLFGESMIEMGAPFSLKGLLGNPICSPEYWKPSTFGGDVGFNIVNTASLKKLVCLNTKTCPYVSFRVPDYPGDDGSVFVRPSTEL
# [22] = target: T5, Polyunsaturated fatty acid 5-lipoxygenase (Rattus norvegicus) (UniProt P12527); assay: The compound was tested for inhibition of isolated 5-Lipoxygenase
# T5 sequence (whole entry): T2 sequence (P12527 whole entry)
# RBL-2H3 [23] = assay: The compound was tested for inhibition LTC4 synthesis; assay type: functional, Rattus norvegicus
# Mus musculus [24] = organism: Mus musculus; assay: The compound was tested for inhibitory activity against LTC4 synthesis in mouse peritoneal macrophages; assay type: functional
# Mus musculus [25] = organism: Mus musculus; assay: The compound was tested for inhibition of prostaglandin E2[PGE2] synthesis; assay type: functional, organism-based
# Mus musculus [26] = organism: Mus musculus; assay: The compound was tested for inhibition of thromboxane B2 synthesis; assay type: functional, organism-based
# RBL-2H3 [27] = assay: The compound was tested for inhibition of translocation in SAR in RBL-2H3 cells; assay type: functional, Rattus norvegicus
structure (smiles),measurement,setting,value
CC1=C(C)C(=O)C(Cc2cccnc2)=C(C)C1=O,pIC50,RBL-1 [1],7.21
Cc1c(CC(=O)O)c2cc(OCc3ccc4ccccc4n3)ccc2n1Cc1ccc(Cl)cc1,IC50,[2],4 nM
CCN1C(=S)N(c2ccc(N3CCN(c4ccc(O)cc4)CC3)cc2)C(=O)C1(C)C,pIC50,[3],6.30
CC1=C(C)C(=O)C(CCCCC#CCCCC#CCO)=C(C)C1=O [DOCEBENONE],pIC50,Rattus norvegicus [4],7.10
O=C(O)c1ccc(CN(Cc2cccc(F)c2)c2ccc(OCc3ccc4ccccc4n3)cc2)cc1,pIC50,[5],7.70
O=S(=O)(Nc1cccc(OCc2ccc3ccccc3n2)c1)C(F)(F)F [RITOLUKAST],bioavailability,[6],49%
same,ED50,Cavia porcellus [7],0.6 mg/kg
same,Kb,Cavia porcellus [8],24 nM
same,pIC50,Mus musculus [9],5.36
same,pIC50,[10],5.37
same,pIC50,Rattus norvegicus [11],5.34
same,pIC50,Rattus norvegicus [12],5.48
same,Inhibition,Rattus norvegicus [13],20%
same,half-life,[14],30 min
C[C@H](OCC(=O)O)[C@@H](C)Sc1cc(C(C)(C)C)c(O)c(C(C)(C)C)c1,pIC50,RBL-1 [15],5.43
CC(C(=O)O)c1ccc2cc(OCc3ccc4ccccc4n3)ccc2c1 (stereo not drawn),pIC50,[16],6.89
same,ED50,Mus musculus [17],11.1 mg/kg
same,Inhibition,[18],30%
same,ED50,Rattus norvegicus [19],75 mg/kg
Oc1cccc(OCc2ccc3ccccc3n2)c1,pIC50,[20],5.22
same,inhibition in vivo at 50 mg/kg,Cavia porcellus [21],82%
same,IC50,Cyclooxygenase,> 100 µM
COC(=O)CCC(=O)N(O)c1cccc(OCc2ccc3ccccc3n2)c1,Inhibition,[22],1530 nM
same,Inhibition,RBL-2H3 [23],780 nM
same,pIC50,Mus musculus [24],6.35
same,pIC50,Mus musculus [25],5.14
same,pIC50,Mus musculus [26],5.34
same,Inhibition,RBL-2H3 [27],750 nM
